Test systems include DMS 114 small cell lung; M19-MEL melanoma; SNB-78 CNS; XF 498 CNS; HOP-18 NSCLC; RXF-631 renal; BT-549 breast; MDA-N; T-47D breast.
Holding throughout (experiment): NCI tumour cell line growth inhibition, 48 h

Our source for the TGI and GI50 values is PubChem BioAssay (NCI).

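Tested at 5 concentrations; 48 h exposure; 96-well plates; endpoints linearly interpolated, else capped at highest concentration. Here, GI50 denotes the concentration required for 50% inhibition of growth. TGI denotes the concentration required for complete inhibition of growth.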

For the molecule `CC/C=C1\N=C(c2ccc(Cl)cc2)OC1=O`, the TGI in the experiment with DMS 114 small cell lung, in the experiment with M19-MEL melanoma, in the experiment on SNB-78 CNS and with XF 498 CNS was over 100 µM in each case.

In the case of `COc1ccc(/C=C2\CCCCC2=O)cc1`, the TGI in the experiment with DMS 114 small cell lung, with HOP-18 NSCLC, in the experiment with M19-MEL melanoma, in the experiment with SNB-78 CNS and in the experiment with XF 498 CNS was over 100 µM throughout.

On to `CCn1cc(/C=C/C(C)c2cn(CC)c(=O)[nH]c2=O)c(=O)[nH]c1=O` (stereo not given), for which the TGI in the experiment on DMS 114 small cell lung, in the experiment with HOP-18 NSCLC, in the experiment on M19-MEL melanoma and with RXF-631 renal was over 100 µM each time.

For `CCC[CH2][Sn]([CH2]CCC)([O]C(=O)c1cc(F)cc(F)c1)[O]C(=O)c1cc(F)cc(F)c1`, the GI50 was 0.307 µM in the experiment with DMS 114 small cell lung; 1.91 µM in the experiment on HOP-18 NSCLC; 0.514 µM with M19-MEL melanoma; 0.404 µM in the experiment with SNB-78 CNS; 1.87 µM in the experiment on XF 498 CNS. Besides, the TGI in the experiment with DMS 114 small cell lung amounted to 1.22 µM; in the experiment with HOP-18 NSCLC, 3.33 µM; with M19-MEL melanoma, 1.74 µM; in the experiment on SNB-78 CNS, 1.66 µM; in the experiment on XF 498 CNS, 3.28 µM.

On to `O=C(O)C1C(C(=O)Nc2ccc3c(c2)Cc2ccccc2-3)C2(Cl)C(Cl)=C(Cl)C1(Cl)C2(Cl)Cl` (stereo not given), for which the figures for the TGI in the experiment with BT-549 breast, with MDA-N and in the experiment with T-47D breast were 39.2 µM, over 100 µM and over 100 µM, respectively.

`COC1=CC(O)(CC(N)=O)c2ccccc2C1=O` (stereo not given): the TGI in the experiment on DMS 114 small cell lung, in the experiment with HOP-18 NSCLC, with M19-MEL melanoma, with RXF-631 renal, in the experiment on SNB-78 CNS and in the experiment on XF 498 CNS was over 100 µM each time.

`CCSCC(N)C(=O)O` (stereo not given): the TGI in the experiment on BT-549 breast, in the experiment on MDA-N and in the experiment with T-47D breast was over 100 µM each time.

For the molecule `Cc1ccc(-c2nc(SCC(=O)O)n[nH]2)cc1`, the TGI with DMS 114 small cell lung, in the experiment on HOP-18 NSCLC, in the experiment with M19-MEL melanoma, with SNB-78 CNS and in the experiment with XF 498 CNS was over 100 µM in each case.

For the molecule `CC(=O)C1CC=C(C)CC1` (stereo not given), the TGI in the experiment on DMS 114 small cell lung, in the experiment with HOP-18 NSCLC, in the experiment on M19-MEL melanoma, in the experiment with RXF-631 renal, with SNB-78 CNS and with XF 498 CNS was over 100 µM in each case.

`COc1ccc(C2=NNC(=O)OC2c2ccccc2)cc1` (stereo not given): the TGI with DMS 114 small cell lung, with HOP-18 NSCLC, with M19-MEL melanoma, in the experiment with RXF-631 renal, in the experiment on SNB-78 CNS and in the experiment on XF 498 CNS was over 100 µM each time.

In the case of `Brc1ccc(-c2nnc(-c3nn(-c4ccccc4)c4nc5ccccc5nc34)o2)cc1`, the TGI in the experiment with DMS 114 small cell lung, in the experiment with HOP-18 NSCLC, with RXF-631 renal and with SNB-78 CNS was over 100 µM each time.

`CC(C)C1OC(=O)C=C1Sc1ccccc1` (stereo not given): the TGI in the experiment on BT-549 breast, in the experiment with MDA-N and in the experiment on T-47D breast was over 100 µM in each case.

On to `N#CC(C(=O)/C(=N\Nc1nc(=S)[nH]n1N)C(C#N)c1ccc(Cl)cc1)c1ccc(Cl)cc1` (stereo not given), for which the TGI in the experiment on DMS 114 small cell lung, in the experiment with HOP-18 NSCLC, in the experiment on M19-MEL melanoma, in the experiment with SNB-78 CNS and with XF 498 CNS was over 100 µM throughout.

Regarding `CCCCCC(O)C1C(=O)OC(C)C(O)/C=C/C=C/C=C/C=C\C=C(\C)C(O)CC(O)CC(O)CC(O)CC(O)CC(O)CC1O` (stereo not given), the GI50 with BT-549 breast, in the experiment with MDA-N and in the experiment with T-47D breast was over 100 µM each time. Besides, the TGI in the experiment with BT-549 breast, in the experiment with MDA-N and with T-47D breast was over 100 µM in each case.

Regarding `COc1ccc(/C(=N/NC(=O)NN)C(c2ccc(OC)cc2)C2(O)CNc3c(Cl)cc(Cl)cc32)cc1` (stereo not given), the TGI in the experiment with DMS 114 small cell lung, in the experiment on HOP-18 NSCLC, in the experiment with M19-MEL melanoma, in the experiment with RXF-631 renal and in the experiment with SNB-78 CNS was over 100 µM throughout.

With `CC(C)(C)NN=C1C(C)(C)C(=NNC(C)(C)C)C1(C)C`, the TGI with DMS 114 small cell lung, with M19-MEL melanoma, in the experiment with SNB-78 CNS and in the experiment on XF 498 CNS was over 100 µM in each case.

With `Cc1ccc(NC(=O)c2cccc([N+](=O)[O-])c2O)c([N+](=O)[O-])c1`, the TGI in the experiment with DMS 114 small cell lung is 25.7 µM; in the experiment on HOP-18 NSCLC, 91.1 µM; in the experiment with M19-MEL melanoma it was 27.6 µM; in the experiment with RXF-631 renal, 26.9 µM; in the experiment with SNB-78 CNS, over 100 µM; in the experiment on XF 498 CNS, 36.2 µM.

For the molecule `Cc1cc(N(CCC#N)S(C)(=O)=O)ccc1C=O`, the TGI in the experiment on DMS 114 small cell lung, in the experiment on HOP-18 NSCLC and in the experiment on SNB-78 CNS was over 100 µM in each case.

Regarding `O=C(CC1(O)C(=O)Nc2ccccc21)c1ccccc1Cl` (stereo not given), the TGI in the experiment with DMS 114 small cell lung, in the experiment with M19-MEL melanoma, with SNB-78 CNS and with XF 498 CNS was over 100 µM in each case.

Turning to `CC1C[C@H](OC(N)=O)C(C)CC1=O` (stereo not given in full), the TGI in the experiment with DMS 114 small cell lung, with HOP-18 NSCLC, in the experiment with M19-MEL melanoma, in the experiment with SNB-78 CNS and in the experiment with XF 498 CNS was over 100 µM in each case.

Turning to `CN(C)c1ccc(N=Cc2c([O-])ccc3ccccc23)cc1.[C-]#[O+].[C-]#[O+].[Ir]`, the GI50 with DMS 114 small cell lung was 10.5 µM; with HOP-18 NSCLC, 13 µM; in the experiment on M19-MEL melanoma it was 16.2 µM; with XF 498 CNS, 20.5 µM. Moreover, the TGI stood at 22.8 µM in the experiment with DMS 114 small cell lung, 27.6 µM with HOP-18 NSCLC, 30.9 µM in the experiment with M19-MEL melanoma and 48.4 µM with XF 498 CNS.

Consider `C/C(=N\NC(=O)c1ccncc1)c1ccc2ccccc2c1O`, for which the TGI is over 100 µM in the experiment with BT-549 breast, over 100 µM in the experiment on MDA-N and 14.5 µM with T-47D breast.

As for `CCCN(CCCC(NC(C)=O)C(=O)NCc1ccccc1)C(=O)NC` (stereo not given), the TGI with DMS 114 small cell lung, in the experiment with M19-MEL melanoma, with RXF-631 renal and in the experiment with SNB-78 CNS was over 100 µM each time.

For `CSc1cnn(CCC#N)c(=O)n1`, the TGI with BT-549 breast, in the experiment with MDA-N and with T-47D breast was over 100 µM each time.

In the case of `COc1ccc2oc3c4c2c1CCC4CCC3=O` (stereo not given), the TGI with DMS 114 small cell lung, in the experiment on M19-MEL melanoma, in the experiment on RXF-631 renal, in the experiment with SNB-78 CNS and in the experiment on XF 498 CNS was over 100 µM in each case.

Take `N/N=C1\C(=O)N(C2CCCCC2)C(=O)C1C(=O)NC1CCCCC1` (stereo not given): the TGI in the experiment on DMS 114 small cell lung, in the experiment with HOP-18 NSCLC, in the experiment on M19-MEL melanoma, in the experiment on RXF-631 renal, in the experiment with SNB-78 CNS and with XF 498 CNS was over 100 µM each time.

`CC1=CC(=O)CCC2(C)C1CC[C@@H]2OC=O` (stereo not given in full): the TGI in the experiment on DMS 114 small cell lung, in the experiment on HOP-18 NSCLC, in the experiment on M19-MEL melanoma, with RXF-631 renal, in the experiment on SNB-78 CNS and in the experiment on XF 498 CNS was over 100 µM throughout.

As for `Cc1cc2c(=O)n(-c3ccc(F)cc3)c(C)nc2c(C(=O)O)c1C`, the TGI in the experiment with DMS 114 small cell lung, in the experiment with HOP-18 NSCLC, with M19-MEL melanoma and in the experiment on SNB-78 CNS was over 100 µM throughout.

Take `CSC(C1c2ccccc2N(C)C2=NC(=O)N(C)C(=O)C21Cl)S(=O)(=O)c1ccc(C)cc1` (stereo not given): the TGI with DMS 114 small cell lung, in the experiment with HOP-18 NSCLC, with M19-MEL melanoma, in the experiment on RXF-631 renal, with SNB-78 CNS and in the experiment with XF 498 CNS was over 100 µM in each case.

On to `CCOC(=O)C(=O)Nc1c(F)cc(F)cc1Br`, for which the TGI with DMS 114 small cell lung, in the experiment with M19-MEL melanoma, with SNB-78 CNS and in the experiment with XF 498 CNS was over 100 µM each time.

With `CCOC(=O)N1CCc2cc(OC)c(OC)c3c2C1CC3=O` (stereo not given), the TGI with DMS 114 small cell lung, in the experiment on HOP-18 NSCLC, in the experiment with M19-MEL melanoma and in the experiment with SNB-78 CNS was over 100 µM in each case.

In the case of `C1CCN(CCC2CCCCN2)CC1` (stereo not given), the TGI in the experiment with BT-549 breast, in the experiment with MDA-N and in the experiment on T-47D breast was over 100 µM each time.

Regarding `CN(C)c1ccc(/C=C(/NC(=O)c2ccccc2)c2nc3ccc(Cl)cc3[nH]2)cc1`, the GI50 with BT-549 breast was 25.4 µM; in the experiment on T-47D breast it was 17.5 µM. Also, the TGI with BT-549 breast is 85.8 µM; with HOP-18 NSCLC it was 8.45 µM; in the experiment with M19-MEL melanoma it was 69.6 µM; in the experiment on SNB-78 CNS it was over 100 µM; in the experiment with T-47D breast, over 77.1 µM.

In the case of `COc1ccc(C(O)/C(=N\NC(N)=S)c2nc3ccc([N+](=O)[O-])cc3[nH]c2=O)cc1OC` (stereo not given), the TGI with DMS 114 small cell lung, with HOP-18 NSCLC, in the experiment with M19-MEL melanoma, with RXF-631 renal and in the experiment on XF 498 CNS was over 100 µM in each case.

As to `C[C@]12CCC[C@H](Cl)C1(O)C[C@H](C(=O)O)CC2` (stereo not given in full), the TGI in the experiment on DMS 114 small cell lung, with HOP-18 NSCLC, in the experiment on M19-MEL melanoma, in the experiment with SNB-78 CNS and with XF 498 CNS was over 100 µM in each case.
